Assay results as given in patent publication US7754249B2, “Haircare compositions and methods” (The Boots Company PLC, priority 2004, dated 2010).

Tested on: interleukin-2 (IL-2) production
Assay: IL-2 inhibition assay in pha-stimulated human lymphocytes
Format: cell-based
Settings: preliminary trial; cultured human lymphocytes stimulated with pha, with or without CsA
Procedure: The potential for the extracts to reduce/prevent hair loss or promote hair growth were assessed by an IL-2 inhibition assay. IL-2 has been associated with inhibition of hair growth and promotion of hair loss.
Human lymphocytes were extracted from blood and cultured using standard techniques. A preliminary trial was carried out to ensure that test cells were able to produce IL-2 when stimulated with phytohaemogluttinin (pha), a known IL-2 promoter, and also for this stimulation to be inhibited using Cyclosporin A (CsA) which is a known inhibitor of IL-2 production.
Following this confirmation of the capability of the cells to produce IL-2, studies using the extracts were carried out using the same methodology, but with the extracts replacing CsA. Results are shown in Table 2 and expressed as % IL-2 inhibition compared to control.
Control=50% denatured ethanol, 50% propylene glycol.
All materials were used at 1 in 1000 dilution.

## phytohaemogluttinin [pha]
  IL-2: >1000 pg/mL
